In PubChem BioAssay (NCI):
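Five compound concentrations were applied to cells in 96-well plates for 48 hours; endpoints were derived by simple linear interpolation of the resulting dose-response curve. TGI: total growth inhibition.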

Experiments:
Assay in all cases: NCI tumour cell line growth inhibition, 48 h
[1] = tested on: 786-0 renal
[2] = tested on: A498 renal
[3] = tested on: A549 NSCLC
[4] = tested on: ACHN renal
[5] = tested on: BT-549 breast
[6] = tested on: COLO 205 colon
[7] = tested on: EKVX NSCLC
[8] = tested on: HCC-2998 colon
[9] = tested on: HCT-116 colon
[10] = tested on: HCT-15 colon
[11] = tested on: HL-60(TB) leukemia
[12] = tested on: HOP-62 NSCLC
[13] = tested on: HOP-92 NSCLC
[14] = tested on: HS 578T breast
[15] = tested on: HT29 colon
[16] = tested on: IGROV1 ovarian
[17] = tested on: K-562 leukemia
[18] = tested on: KM12 colon
[19] = tested on: M14 melanoma
[20] = tested on: MALME-3M melanoma
[21] = tested on: MCF7 breast
[22] = tested on: MDA-MB-231 breast
[23] = tested on: MDA-N
[24] = tested on: MOLT-4 leukemia
[25] = tested on: NCI-H226 lung
[26] = tested on: NCI-H23 lung
[27] = tested on: NCI-H460 lung
[28] = tested on: OVCAR-5 ovarian
[29] = tested on: OVCAR-8 ovarian
[30] = tested on: PC-3 prostate
[31] = tested on: RPMI-8226 leukemia
[32] = tested on: RXF 393 renal
[33] = tested on: SK-MEL-2 melanoma
[34] = tested on: SK-MEL-28 melanoma
[35] = tested on: SK-MEL-5 melanoma
[36] = tested on: SN12C renal
[37] = tested on: SNB-19 CNS
[38] = tested on: SNB-75 CNS
[39] = tested on: SR leukemia
[40] = tested on: SW-620 colon
[41] = tested on: T-47D breast
[42] = tested on: TK-10 renal
[43] = tested on: U251 CNS
[44] = tested on: UACC-257 melanoma
[45] = tested on: UACC-62 melanoma
[46] = tested on: UO-31 renal
[47] = tested on: CAKI-1 renal
[48] = tested on: CCRF-CEM leukemia
[49] = tested on: DU-145 prostate
[50] = tested on: MDA-MB-435
[51] = tested on: NCI-H522 lung
[52] = tested on: NCI/ADR-RES ovarian
[53] = tested on: OVCAR-3 ovarian
[54] = tested on: SF-295 CNS
[55] = tested on: SK-OV-3 ovarian

Structure (SMILES): CCOC(=O)c1c(N)sc2c1C(C(=O)OCC)CC2 (centres undefined)
- TGI [1]: > 100 µM
- TGI [2]: 82.1 µM
- TGI [3]: > 100 µM
- TGI [4]: > 100 µM
- TGI [5]: > 100 µM
- TGI [6]: > 100 µM
- TGI [7]: > 100 µM
- TGI [8]: > 100 µM
- TGI [9]: > 100 µM
- TGI [10]: > 100 µM
- TGI [11]: > 100 µM
- TGI [12]: > 100 µM
- TGI [13]: > 100 µM
- TGI [14]: > 100 µM
- TGI [15]: > 100 µM
- TGI [16]: > 100 µM
- TGI [17]: > 100 µM
- TGI [18]: > 100 µM
- TGI [19]: > 100 µM
- TGI [20]: > 100 µM
- TGI [21]: > 100 µM
- TGI [22]: > 100 µM
- TGI [23]: > 100 µM
- TGI [24]: > 100 µM
- TGI [25]: > 100 µM
- TGI [26]: > 100 µM
- TGI [27]: > 100 µM
- TGI [28]: > 100 µM
- TGI [29]: > 100 µM
- TGI [30]: > 100 µM
- TGI [31]: > 100 µM
- TGI [32]: > 100 µM
- TGI [33]: > 100 µM
- TGI [34]: > 100 µM
- TGI [35]: > 100 µM
- TGI [36]: > 100 µM
- TGI [37]: > 100 µM
- TGI [38]: > 100 µM
- TGI [39]: > 100 µM
- TGI [40]: > 100 µM
- TGI [41]: > 100 µM
- TGI [42]: > 100 µM
- TGI [43]: > 100 µM
- TGI [44]: > 100 µM
- TGI [45]: > 100 µM
- TGI [46]: > 100 µM

Structure (SMILES): O=C(N/N=C(/c1ccccc1)C(F)(F)F)c1ccncc1
- TGI [2]: > 100 µM
- TGI [5]: > 100 µM
- TGI [47]: > 100 µM
- TGI [48]: > 100 µM
- TGI [6]: > 100 µM
- TGI [49]: > 100 µM
- TGI [8]: > 100 µM
- TGI [9]: > 100 µM
- TGI [10]: > 100 µM
- TGI [11]: > 100 µM
- TGI [12]: > 100 µM
- TGI [13]: > 100 µM
- TGI [14]: > 100 µM
- TGI [15]: > 100 µM
- TGI [16]: > 100 µM
- TGI [17]: > 100 µM
- TGI [18]: > 100 µM
- TGI [19]: > 100 µM
- TGI [20]: > 100 µM
- TGI [21]: > 100 µM
- TGI [50]: > 100 µM
- TGI [23]: > 100 µM
- TGI [24]: > 100 µM
- TGI [25]: > 100 µM
- TGI [26]: > 100 µM
- TGI [27]: > 100 µM
- TGI [51]: > 100 µM
- TGI [52]: > 100 µM
- TGI [53]: > 100 µM
- TGI [28]: > 100 µM
- TGI [29]: > 100 µM
- TGI [30]: > 100 µM
- TGI [31]: > 100 µM
- TGI [32]: > 100 µM
- TGI [54]: > 100 µM
- TGI [33]: > 100 µM
- TGI [34]: > 100 µM
- TGI [35]: > 100 µM
- TGI [55]: > 100 µM
- TGI [36]: > 100 µM
- TGI [37]: > 100 µM
- TGI [38]: > 100 µM
- TGI [39]: > 100 µM
- TGI [41]: > 100 µM
- TGI [42]: > 100 µM
- TGI [43]: > 100 µM
- TGI [45]: > 100 µM
- TGI [46]: > 100 µM
